pIC50: −log10 of the molar value.
How the values were obtained:
Assay type in all cases: functional, cell-based
HEL = experiment: Cytotoxicity against human HEL cells assessed as reduction in cell viability after 48 hrs by MTT assay
K562 = experiment: Cytotoxicity against human K562 cells assessed as reduction in cell viability after 48 hrs by MTT assay
MDA-MB-231 = experiment: Cytotoxicity against human MDA-MB-231 cells assessed as reduction in cell viability after 48 hrs by MTT assay
PC-3 = experiment: Cytotoxicity against human PC3 cells assessed as reduction in cell viability after 48 hrs by MTT assay
[1] = Cytotoxicity against human WM9 cells assessed as reduction in cell viability after 48 hrs by MTT assay

Compound	pIC50 (HEL; Homo sapiens, HEL, 48 h)	pIC50 (K562; Homo sapiens, K562, 48 h)	pIC50 (MDA-MB-231; Homo sapiens, MDA-MB-231, 48 h)	pIC50 (PC-3; Homo sapiens, PC-3, 48 h)	pIC50 ([1]; Homo sapiens, WM9, 48 h)	pIC50 (HEL; hel)	pIC50 (K562; k562)	pIC50 (MDA-MB-231; mda-mb-231)	pIC50 (PC-3; pc-3)	pIC50 [1]
COc1cc(NC(=O)Nc2ccc([N+](=O)[O-])cc2)c2cc1Oc1ccc(cc1)C[C@H]1c3cc(c(OC)cc3CCN1C)Oc1c(OC)c(OC)cc3c1[C@H](C2)N(C)CC3	5.18	5.74	5.29	5.16	5.33	–	–	–	–	–
COc1cc(NC(=O)NCc2ccccc2)c2cc1Oc1ccc(cc1)C[C@H]1c3cc(c(OC)cc3CCN1C)Oc1c(OC)c(OC)cc3c1[C@H](C2)N(C)CC3	5.10	5.34	5.16	5.24	5.21	–	–	–	–	–
COc1cc(NC(=O)Nc2ccc(C(F)(F)F)cc2)c2cc1Oc1ccc(cc1)C[C@H]1c3cc(c(OC)cc3CCN1C)Oc1c(OC)c(OC)cc3c1[C@H](C2)N(C)CC3	5.32	5.76	5.27	5.28	5.38	–	–	–	–	–
COc1ccc(NC(=S)Nc2cc(OC)c3cc2C[C@H]2c4c(cc(OC)c(OC)c4Oc4cc5c(cc4OC)CCN(C)[C@H]5Cc4ccc(cc4)O3)CCN2C)cc1	5.13	5.57	5.13	5.28	5.27	–	–	–	–	–
COc1cc(NC(=S)Nc2ccc(C)cc2)c2cc1Oc1ccc(cc1)C[C@H]1c3cc(c(OC)cc3CCN1C)Oc1c(OC)c(OC)cc3c1[C@H](C2)N(C)CC3	5.22	5.65	5.44	5.27	5.26	–	–	–	–	–
COc1cc(NC(=O)Nc2ccc(OC(F)(F)F)cc2)c2cc1Oc1ccc(cc1)C[C@H]1c3cc(c(OC)cc3CCN1C)Oc1c(OC)c(OC)cc3c1[C@H](C2)N(C)CC3	5.40	5.90	5.31	6.13	5.41	–	–	–	–	–
COc1cc(NC(=S)NC(C)C)c2cc1Oc1ccc(cc1)C[C@H]1c3cc(c(OC)cc3CCN1C)Oc1c(OC)c(OC)cc3c1[C@H](C2)N(C)CC3	5.37	5.50	5.25	5.68	5.44	–	–	–	–	–
COc1cc(NC(=O)N2c3ccccc3Sc3ccccc32)c2cc1Oc1ccc(cc1)C[C@H]1c3cc(c(OC)cc3CCN1C)Oc1c(OC)c(OC)cc3c1[C@H](C2)N(C)CC3	5.48	5.60	5.38	5.53	5.49	–	–	–	–	–
COc1cc(NC(=O)Nc2cccc(C)c2)c2cc1Oc1ccc(cc1)C[C@H]1c3cc(c(OC)cc3CCN1C)Oc1c(OC)c(OC)cc3c1[C@H](C2)N(C)CC3	5.31	5.67	4.98	5.50	5.29	–	–	–	–	–
COc1cc(NC(=O)NCCc2ccccc2)c2cc1Oc1ccc(cc1)C[C@H]1c3cc(c(OC)cc3CCN1C)Oc1c(OC)c(OC)cc3c1[C@H](C2)N(C)CC3	5.05	5.31	5.01	5.23	5.11	–	–	–	–	–
COc1ccc(NC(=O)Nc2cc(OC)c3cc2C[C@H]2c4c(cc(OC)c(OC)c4Oc4cc5c(cc4OC)CCN(C)[C@H]5Cc4ccc(cc4)O3)CCN2C)cc1	5.18	5.49	4.99	5.33	5.30	–	–	–	–	–
COc1cc(NC(=O)Nc2ccc(Cl)c(C(F)(F)F)c2)c2cc1Oc1ccc(cc1)C[C@H]1c3cc(c(OC)cc3CCN1C)Oc1c(OC)c(OC)cc3c1[C@H](C2)N(C)CC3	5.27	5.69	4.99	5.33	5.51	–	–	–	–	–
C=C(C)C(=O)OCCNC(=O)Nc1cc(OC)c2cc1C[C@H]1c3c(cc(OC)c(OC)c3Oc3cc4c(cc3OC)CCN(C)[C@H]4Cc3ccc(cc3)O2)CCN1C	4.91	5.10	4.80	5.11	5.74	–	–	–	–	–
COc1cc(NC(=O)N2CCN(S(C)(=O)=O)C2=O)c2cc1Oc1ccc(cc1)C[C@H]1c3cc(c(OC)cc3CCN1C)Oc1c(OC)c(OC)cc3c1[C@H](C2)N(C)CC3	5.26	5.51	5.36	5.66	5.42	–	–	–	–	–
CCNC(=O)Nc1cc(OC)c2cc1C[C@H]1c3c(cc(OC)c(OC)c3Oc3cc4c(cc3OC)CCN(C)[C@H]4Cc3ccc(cc3)O2)CCN1C	5.40	5.49	5.23	6.01	5.64	–	–	–	–	–
CCCNC(=O)Nc1cc(OC)c2cc1C[C@H]1c3c(cc(OC)c(OC)c3Oc3cc4c(cc3OC)CCN(C)[C@H]4Cc3ccc(cc3)O2)CCN1C	5.32	5.29	5.20	6.14	5.32	–	–	–	–	–
COc1cc(NC(=O)Nc2ccc(F)cc2)c2cc1Oc1ccc(cc1)C[C@H]1c3cc(c(OC)cc3CCN1C)Oc1c(OC)c(OC)cc3c1[C@H](C2)N(C)CC3	–	–	–	–	–	5.59	6.03	5.51	6.11	5.46
COc1cc(NC(=S)Nc2ccc(Cl)cc2)c2cc1Oc1ccc(cc1)C[C@H]1c3cc(c(OC)cc3CCN1C)Oc1c(OC)c(OC)cc3c1[C@H](C2)N(C)CC3	5.14	5.61	5.36	5.22	5.16	–	–	–	–	–

— ChEMBL document CHEMBL4138174, “Design and synthesis of novel C14-urea-tetrandrine derivatives with potent anti-cancer activity” (Eur J Med Chem, 2018)
